Experiment: Microsomal metabolic stability
Assay type: in vitro ADME
Details: 30 minutes at 37°C, rat microsomes
Method: Metabolic stability was conducted using pooled microsomes from non-induced male Sprague-Dawley rats. J-147 was incubated for 30 minutes at 37°C at concentrations of 1 μM. Subsequent HPLC analysis using a Waters Alliance 2795 in combination with a Waters Quattro Premier mass spectrometer measured disappearance of the parent molecule. The compounds were run on a Waters X-BridgeC18 (186003021) 50 × 2.1 mm column with 3.5 micron particle packing at a flow rate of 1 ml/min and with the temperature maintained at 50°C. Solvent A was water with 0.1% formic acid. Solvent B was acetonitrile with 0.07% formic acid. The data for 3 replicates are expressed as percent of parent remaining.

Structure (SMILES): Cc1ncc2n1-c1ccc(Cl)cc1C(c1ccccc1F)=NC2 [Midazolam, reference compound]
- Metabolism Ranking (1 μM): High (<45=high)
- remaining at 0.5 h, 1 μM (male, Sprague-Dawley, pooled microsomes from non-induced rats, percent of parent remaining): 0 to 3%

Reference: PMC4215638, “J-147 a Novel Hydrazide Lead Compound to Treat Neurodegeneration: CeeTox™ Safety and Genotoxicity Analysis” (Journal of neurology & neurophysiology, 2013)
